Assay results: US20230192700A1, “PYRAZOLOPYRAZINES ACTING ON CANCERS VIA INHIBITION OF CDK12” (Bayer Aktiengesellschaft, priority 2020, published 2023)
Where two headings read alike, the source gives them in different places.

Assays:
CDK12/CyclinK = target: T1, CDK12/CyclinK (Homo sapiens, UniProt Q9NYV4); test: CDK12/CycK high ATP kinase assay (TR-FRET); assay type: biochemical; conditions: 2 mM ATP (high ATP); median; read-out: CDK12/CyclinK, 2 mM ATP (high ATP), IC50 - [mol/l] (median)
T1 construct: His-CDK12 (aa Q696-S1082); made in house; host or cells: Hi-5 insect cells (baculovirus co-infection with CycK and yeast CAK1)
T1 sequence (Q9NYV4 with tags, fused parts or gaps): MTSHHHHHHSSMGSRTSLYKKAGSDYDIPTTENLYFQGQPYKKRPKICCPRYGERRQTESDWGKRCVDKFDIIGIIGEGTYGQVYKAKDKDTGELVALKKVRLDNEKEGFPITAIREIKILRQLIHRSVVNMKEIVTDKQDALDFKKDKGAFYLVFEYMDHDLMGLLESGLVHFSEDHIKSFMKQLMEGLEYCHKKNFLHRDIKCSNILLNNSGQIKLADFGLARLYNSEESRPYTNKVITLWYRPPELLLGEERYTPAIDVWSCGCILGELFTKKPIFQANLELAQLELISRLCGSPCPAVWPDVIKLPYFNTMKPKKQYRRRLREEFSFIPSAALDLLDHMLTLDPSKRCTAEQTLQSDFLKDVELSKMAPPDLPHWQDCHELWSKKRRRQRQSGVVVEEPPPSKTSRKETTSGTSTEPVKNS
T1 sequence (O75909 with tags, fused parts or gaps partner limits assumed): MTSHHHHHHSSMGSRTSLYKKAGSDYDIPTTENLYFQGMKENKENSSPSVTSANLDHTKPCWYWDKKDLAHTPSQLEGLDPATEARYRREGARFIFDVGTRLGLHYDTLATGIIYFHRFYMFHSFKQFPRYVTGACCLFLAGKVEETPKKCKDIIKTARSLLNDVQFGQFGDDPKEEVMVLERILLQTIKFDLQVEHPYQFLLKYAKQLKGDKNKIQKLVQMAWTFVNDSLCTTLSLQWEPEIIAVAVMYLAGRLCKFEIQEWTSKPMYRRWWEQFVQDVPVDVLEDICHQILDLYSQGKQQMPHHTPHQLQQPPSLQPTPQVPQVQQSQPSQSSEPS
Excerpt: 2.2 CDK12/CycK high ATP Kinase Assay
In the context of the present invention, the term “IC50 CDK12 hATP” refers to the ICso values obtained according to the assay described in this section (2.2) herein below, i.e. the IC50 values for the inhibition of CDK12 at high ATP.
CDK12/CycK -inhibitory activity of compounds of the present invention at 2 millimol/L adenosine-tri-phosphate (ATP) was quantified employing the TR-FRET (TR-FRET=Time Resolved Fluorescence Energy Transfer) based CDK12/CycK activity inhibition assay as described in the following paragraphs.
A complex of human recombinant CDK12 and human recombinant CycK (both N-terminally His-tagged, expression and purification as described above) was used as enzyme. As substrate for the kinase reaction biotinylated peptide biotin-Ahx-KFELLPTPPLSPSRRSGL (C-terminus in amid form) was used which can be purchased e.g. form the company Biosyntan (Berlin-Buch, Germany).
For the assay 50 nanoL of a 100 fold concentrated solution of the test compound in DMSO was pipetted into either a black low volume 384 well microtiter plate or a black 1536 well microtiter plate (both Greiner Bio-One, Frickenhausen, Germany), 2 microL of a solution of CDK12/CycK in aqueous assay buffer [25 millimol/L HEPES pH 7.5, 20 millimol/L MgCl2, 5 millimol/L β-glycerophosphate, 2 millimol/L EGTA, 1.0 millimol/L dithiothreitol, 0.01% (v/v) Nonidet-P40 (Sigma), 0.01% (w/v) bovine serum albumin] were added and the mixture was incubated for 15 min at 22° C. to allow pre-binding of the test compounds to the enzyme before the start of the kinase reaction. Then the kinase reaction was started by the addition of 3 microL of a solution ATP (3.33 millimol/L=>final conc. in the 5 microL assay volume is 2 millimol/L) and substrate (1.67 micromol/L=>final conc. in the 5 microL assay volume is 1 micromol/L) in assay buffer and the resulting mixture was incubated for a reaction time of 60 min at 22° C. The concentration of CDK12/CycK was adjusted depending of the activity of the enzyme lot and was chosen appropriate to have the assay in the linear range, typical concentrations were about 0.75 nanomol/L. The reaction was stopped by the addition of 3 microL of a solution of TR-FRET detection reagents (125 nanomol/L streptavidine-XL665 [Cisbio Bioassays, Codolet, France] and 0.67 nanomol/L anti-Phospho-c-Myc (Ser 62) (E1J4K)-antibody from Cell Signalling [#13748] and 2 nanomol/L LANCE EU-W1024 labeled anti-rabbit IgG antibody [Perkin-Elmer, product no. 0083]) in an aqueous EDTA-solution (133 millimol/L EDTA, 0.27% (w/v) bovine serum albumin in 66.7 millimol/L HEPES pH 7.5).
The resulting mixture was incubated 1 h at 22° C. to allow the formation of complex between the phosphorylated biotinylated peptide and the detection reagents. Subsequently the amount of phosphorylated substrate was evaluated by measurement of the resonance energy transfer from the Eu-chelate to the streptavidine-XL. Therefore, the fluorescence emissions at 620 nm and 665 nm after excitation at 350 nm was measured in a TR-FRET reader, e.g. a Pherastar FS (BMG Labtechnologies, Offenburg, Germany) or a Viewlux (Perkin-Elmer). The ratio of the emissions at 665 nm and at […] was taken as the measure for the amount of phosphorylated substrate. The data were normalised (enzyme reaction without inhibitor=0% inhibition, all other assay components but no enzyme=100% inhibition).

[1] = tested on: CAL-120 human breast adenocarcinoma cells; test: Proliferation assay CAL-120 (crystal violet); assay type: cell-based; conditions: CAL-120 cells, 4 days, median, read-out: Prolif-CAL-120— IC50 - [mol/l] (median)
Procedure: 4. Proliferation assay: MDA-MB-231, CAL-120
Human tumour cells were originally obtained from the American Type Culture Collection (ATCC), or from the Deutsche Sammlung von Mikroorganismen and Zellkulturen (DSMZ, German Collection of Microorganisms and Cell Cultures). Cultivated tumour cells (CAL-120, human breast adenocarcinoma cells, DSMZ ACC-459; MDA-M B-231, human breast cancer cells, ATCC HTB-26) were plated at a density of 4,000 cells/well in a 96-well multititer plate in 200 microL of their respective growth medium supplemented 10% fetal calf serum. After 24 hours, the cells of one plate (zero-point plate) were stained with crystal violet (see below), while the medium of the other plates was supplemented with the test substances in various concentrations (0 micromol/L, as well as in the range of 0.01-10 micromol/L; the final concentration of the solvent dimethyl sulfoxide was adjusted to 0.1%) using a Tecan HP D300 Digital Dispenser. The cells were incubated for 4 days in the presence of test substances. Cell proliferation was determined by staining the cells with crystal violet: the cells were fixed by adding 20 microL/measuring point of an 11% glutaric aldehyde solution for 15 minutes at room temperature. After three washing cycles of the fixed cells with water, the plates were dried at room temperature. The cells were stained by adding 100 microL/measuring point of a 0.1% crystal violet solution (pH 3.0). After three washing cycles of the stained cells with water, the plates were dried at room temperature. The dye was dissolved by adding 100 microL/measuring point of a 10% acetic acid solution. The extinction was determined by photometry at a wavelength of 595 nm. The change of cell number, in percent, was calculated by normalization of the measured values to the extinction values of the zero-point plate(=0%) and the extinction of the untreated (0 μM) cells(=100%). The IC50 values (inhibitory concentration at 50% of maximal effect) were determined by means of a 4 parameter fit.

| Structure (SMILES) | IC50 (CDK12/CyclinK) [nM] | IC50 ([1]; Homo sapiens, CAL-120, 96 h) [nM] | IC50 [1] [nM] |
| --- | --- | --- | --- |
| O[C@H]1C[C@@H](Cn2nc(NCc3nc4ccccc4[nH]3)c3ncc(C4CC4)nc32)C1 [Example 71, cis-3-[(3-{[(1H-benzimidazol-2-yl)methyl]amino}-6-cyclopropyl-1H-pyrazolo[3,4-b]pyrazin-1-yl)methyl]cyclobutan-1-ol] | > 20000 | 52.4 |  |
| COCCC(C)n1nc(NCc2nc3ccccc3[nH]2)c2ncc(C3CC3)nc21 (single isomer, unassigned; (+)) [Example 59, (+)-N-[(1H-benzimidazol-2-yl)methyl]-6-cyclopropyl-1-[4-methoxybutan-2-yl]-1H-pyrazolo[3,4-b]pyrazin-3-amine] | > 20000 |  | 440 |
| CN1CCCC(n2nc(NCc3nc4ccccc4[nH]3)c3ncc(C4CC4)nc32)CC1 (racemic) [Example 34, (±)-N-[(1H-benzimidazol-2-yl)methyl]-6-cyclopropyl-1-(1-methylazepan-4-yl)-1H-pyrazolo[3,4-b]pyrazin-3-amine] | > 20000 | 7.7 |  |
| c1ccc2[nH]c(CNc3nn(C4C[C@H]5CC[C@@H](C4)O5)c4nc(C5CC5)cnc34)nc2c1 (stereo partly drawn) [Example 45, exo/endo-N-[(1H-benzimidazol-2-yl)methyl]-6-cyclopropyl-1-(8-oxabicyclo[3.2.1]octan-3-yl)-1H-pyrazolo[3,4-b]pyrazin-3-amine] |  | 9.86 |  |
| Cc1cccc2[nH]c(CNc3nn(C4CCN(C)CC4)c4nc(C5CC5)cnc34)nc12 [Example 8, 6-cyclopropyl-N-[(4-methyl-1H-benzimidazol-2-yl)methyl]-1-(1-methylpiperidin-4-yl)-1H-pyrazolo[3,4-b]pyrazin-3-amine] | > 20000 | 14.2 |  |
| CN1CCC(n2nc(NCc3nc4c(Br)cccc4[nH]3)c3ncc(C4CC4)nc32)CC1 [Example 20, N-[(4-bromo-1H-benzimidazol-2-yl)methyl]-6-cyclopropyl-1-(1-methylpiperidin-4-yl)-1H-pyrazolo[3,4-b]pyrazin-3-amine] | > 20000 | 7.27 |  |
| Fc1ccc2[nH]c(CNc3nn(C4CCOCC4)c4nc(C5CC5)cnc34)nc2c1F [Example 32, 6-cyclopropyl-N-[(4,5-difluoro-1H-benzimidazol-2-yl)methyl]-1-(oxan-4-yl)-1H-pyrazolo[3,4-b]pyrazin-3-amine] | 13800 | 2.12 |  |
| O[C@H]1CC[C@@H](n2nc(NCc3nc4ccccc4[nH]3)c3ncc(C4CC4)nc32)CC1 [Example 51, cis-4-(3-{[(1H-benzimidazol-2-yl)methyl]amino}-6-cyclopropyl-1H-pyrazolo[3,4-b]pyrazin-1-yl)cyclohexan-1-ol] | > 20000 |  |  |
| CN1CCC(n2nc(NCc3nc4cc(Cl)c(Cl)cc4[nH]3)c3ncc(C4CC4)nc32)CC1 [Example 19, 6-cyclopropyl-N-[(5,6-dichloro-1H-benzimidazol-2-yl)methyl]-1-(1-methylpiperidin-4-yl)-1H-pyrazolo[3,4-b]pyrazin-3-amine] | > 20000 | 3.61 |  |
| CC(CCN(C)C)n1nc(NCc2nc3ccccc3[nH]2)c2ncc(C3CC3)nc21 (single isomer, unassigned) [Example 64, (−) or(+)-N-[(1H-benzimidazol-2-yl)methyl]-6-cyclopropyl-1-[4-(dimethylamino)butan-2-yl]-1H-pyrazolo[3,4-b]pyrazin-3-amine] | > 20000 |  | 295 |
| O[C@H]1CC[C@H](n2nc(NCc3nc4cc(F)ccc4[nH]3)c3ncc(C4CC4)nc32)CC1 [Example 56, trans-4-(6-cyclopropyl-3-{[(5-fluoro-1H-benzimidazol-2-yl)methyl]amino}-1H-pyrazolo[3,4-b]pyrazin-1-yl)cyclohexan-1-ol] | > 18100 |  |  |
| Cc1ccc2[nH]c(CNc3nn(C4CCN(C)CC4)c4nc(C5CC5)cnc34)nc2c1 [Example 6, 6-cyclopropyl-N-[(5-methyl-1H-benzimidazol-2-yl)methyl]-1-(1-methylpiperidin-4-yl)-1H-pyrazolo[3,4-b]pyrazin-3-amine] | > 20000 |  |  |
| CC1CC(n2nc(NCc3nc4ccccc4[nH]3)c3ncc(C4CC4)nc32)CCO1 (racemic) [Example 44, (±)-cis/trans-N-[(1H-benzimidazol-2-yl)methyl]-6-cyclopropyl-1-(2-methyloxan-4-yl)-1H-pyrazolo[3,4-b]pyrazin-3-amine] |  | 23.5 |  |
| CC1(C)CC(n2nc(NCc3nc4ccccc4[nH]3)c3ncc(C4CC4)nc32)CC(C)(C)O1 [Example 52, N-[(1H-benzimidazol-2-yl)methyl]-6-cyclopropyl-1-(2,2,6,6-tetramethyloxan-4-yl)-1H-pyrazolo[3,4-b]pyrazin-3-amine] | > 20000 |  |  |
| O=CO.c1ccc(-n2nc(NCc3nc4ccccc4[nH]3)c3ncc(C4CC4)nc32)cc1 [Example 13, formic acid—N-[(1H-benzimidazol-2-yl)methyl]-6-cyclopropyl-1-phenyl-1H-pyrazolo[3,4-b]pyrazin-3-amine (1/1)] | > 20000 |  |  |
| O[C@H]1C[C@H](n2nc(NCc3nc4ccccc4[nH]3)c3ncc(C4CC4)nc32)C1 [Example 43, trans-3-(3-{[(1H-benzimidazol-2-yl)methyl]amino}-6-cyclopropyl-1H-pyrazolo[3,4-b]pyrazin-1-yl)cyclobutan-1-ol] |  | 41.9 |  |
| c1ccc2[nH]c(CNc3nn(C4CC5(COC5)C4)c4nc(C5CC5)cnc34)nc2c1 [Example 54, N-[(1H-benzimidazol-2-yl)methyl]-6-cyclopropyl-1-(2-oxaspiro[3.3]heptan-6-yl)-1H-pyrazolo[3,4-b]pyrazin-3-amine] | 11100 |  |  |
| c1ccc2[nH]c(CNc3nn(C4COC4)c4nc(C5CC5)cnc34)nc2c1 [Example 55, N-[(1H-benzimidazol-2-yl)methyl]-6-cyclopropyl-1-(oxetan-3-yl)-1H-pyrazolo[3,4-b]pyrazin-3-amine] | > 20000 |  |  |
| Cn1nc(NCc2nc3ccccc3[nH]2)c2ncc(C3CC3)nc21 [Example 15, N-[(1H-benzimidazol-2-yl)methyl]-6-cyclopropyl-1-methyl-1H-pyrazolo[3,4-b]pyrazin-3-amine] | > 20000 |  |  |
